The results in this text go back to US8404664B2, “Phosphonated Rifamycins and uses thereof for the prevention and treatment of bone and joint infections” (Targanta Therapeutics, Inc., priority 2005, dated 2013).

In brackets after ≈: the same amount, converted by molar mass.

Series [1] in a line: Regeneration of drug from bone powder-bound prodrug. The format is in vitro ADME. The note with it: for % Conversion of bone-bound prodrug to parent drug: 24 h incubation, 37° C.; for Impact of the medium on the rate of regeneration of parent drug (in words): serum compared to PBS.
For series [2], the system named is S. aureus ATCC 13709 Novobiocin resistant mutant (bone infection). The experiment in a line: Prophylactic efficacy in rat model of S. aureus bone infection. The class given is in vivo. The note with it: for Prophylactic effect (in words): rat bone infection, doses and times of Table 3, t-test p<0.05; for Measured bacterial titer: rat tibia 24 h postinfection.
A short description of series [3]: Levels of compound 9 in rat tibiae (microbiological assay). The format is in vivo. The settings on record: for Amount of compound 9 in the uninfected tibiae: dose equivalent to 10 mg/kg of 9 (11: 15.5 mg/kg), three days prior to infection. How it is done:
The experimentally obtained intact uninfected (contra lateral) tibia of the treated and infected rats described above was ground to a powder which was suspended in PBS+2% DMSO. The mixture was centrifuged for 2 min at 13,000 rpm. The amount of compound 9 released in the supernatant was determined by microbiological assay as described previously (Example 3).

The test system of series [4] is S. aureus ATCC 13709 Novobiocin and Rifampicin resistant variant. The experiment in a line: microbe, parasite or virus in culture. The format is cell-based. The note with it: for Minimum inhibitory concentration, S. aureus ATCC 13709 variant: Novobiocin and Rifampicin resistant variant. A digest of the protocol: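 Two-fold serial dilutions in DMSO tested in cation-adjusted Mueller Hinton broth per NCCLS M26-A, 5×10^5 c.f.u./mL inoculum, 1.25% final DMSO, duplicates.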

Where [5] appears, read: single dose 11 mg/kg parent drug equivalent, 3 days prior to infection.

As for “3-(((4-(2-(3-((bisphosphonomethyl)carbamoyl)propanoyloxy)ethyl)-1-piperazinyl)imino)methyl)rifamycin [Compound 11]”, the “Regeneration of parent drug once bound to bone (in words)” value in series [1] is given as “appreciable rates of regeneration”. For the same compound, the “% Conversion of bone-bound prodrug to parent drug” value (from here on “% Conversion of bone-bound prodrug”) in series [1] (50% Human Serum) was 1.01%; in series [1] (50% Rat Serum), 1.01%; in series [1] (PBS), 0.97%. In addition, the “Impact of the medium on the rate of regeneration of parent drug (in words)” value (“Impact of the medium” for short) in series [1] was “not significantly impacted”. The “Prophylactic effect (in words)” value in series [2] is “statistically significant”. In series [2] (setting [5]), the Measured bacterial titer is 3.01 ± 0.47 Log CFU/g of bone. Further, the “Level of compound 9 in uninfected tibia” value in series [3] (11 at 32 mg/kg once weekly for 4 weeks after the infection) was 1.28±0.18 μg/g of bone. Besides, the “Amount of compound 9 in the uninfected tibiae” value in series [3] came to 0.88 ± 0.11 µg/g.

In the case of `CO[C@H]1/C=C/O[C@@]2(C)Oc3c(C)c(O)c4c(O)c(c(/C=N/N5CCN(CCO)CC5)c(O)c4c3C2=O)NC(=O)/C(C)=C\C=C\[C@H](C)[C@H](O)[C@@H](C)[C@@H](O)[C@@H](C)[C@H](OC(C)=O)[C@@H]1C` [Compound 9, 3-(((4-(2-hydroxyethyl)-1-piperazinyl)imino)methyl)rifamycin], in series [2] (setting [5]), the Measured bacterial titer is given as 6.38 ± 0.90 Log CFU/g of bone. In addition, in series [3], the “Amount of compound 9 in the uninfected tibiae” value was under 0.17 µg/g.

Turning to `CO[C@H]1/C=C/O[C@@]2(C)Oc3c(C)c(O)c4c(=O)c(c5oc6cc(N7CCN(CC(C)C)CC7)cc(O)c6nc-5c4c3C2=O)NC(=O)/C(C)=C\C=C\[C@H](C)[C@H](OC(=O)CCCOC(=O)CCC(=O)NC(P(=O)(O)O)P(=O)(O)O)[C@@H](C)[C@@H](O)[C@@H](C)[C@H](OC(C)=O)[C@@H]1C` [Compound 81, 21-O-(4-((3-(bisphosphonomethyl)carbamoyl)propanoyloxy)butanoyl)-1′,4-Didehydro-1-deoxy-1,4-dihydro-3′-hydroxy-5′-[4-(2-methylpropyl)-1-piperazinyl]-1-oxorifamycin VIII], in series [4], the “Activity against the Rifampicin resistant variant of S. aureus ATCC13709 (in words)” value (from here on “Activity”) is “complete lack of activity” and the “Minimum inhibitory concentration, S. aureus ATCC 13709 variant” value (shortened to “Minimum inhibitory concentration”) was over 128 µg/mL. In addition, the “% Conversion of bone-bound prodrug” value in series [1] (50% Rat Serum) is recorded as 2.50%. Besides, the “% Conversion of bone-bound prodrug” value in series [1] (PBS) was 1.98%. In addition, the “Impact of the medium” value in series [1] is listed as “not significantly impacted”. In addition, the “Prophylactic effect (in words)” value in series [2] is reported as “statistically significant”. For the same compound, the Measured bacterial titer in series [2] (single dose 10 mg/kg parent drug equivalent, 3 days prior to infection) is recorded as 2.05 ± 0.06 Log CFU/g of bone.

For the compound `CO[C@H]1/C=C/O[C@@]2(C)Oc3c(C)c(O)c4c(=O)c(c5oc6cc(N7CCN(CCOC(=O)CCC(=O)NC(P(=O)(O)O)P(=O)(O)O)CC7)cc(O)c6nc-5c4c3C2=O)NC(=O)/C(C)=C\C=C\[C@H](C)[C@H](O)[C@@H](C)[C@@H](O)[C@@H](C)[C@H](OC(C)=O)[C@@H]1C.N.N` [Compound 62], the “Activity” value in series [4] is given as “complete lack of activity”. Also, the “Minimum inhibitory concentration” value in series [4] was over 128 µg/mL. The “Regeneration of parent drug once bound to bone (in words)” value in series [1] was “appreciable rates of regeneration”. The “% Conversion of bone-bound prodrug” value in series [1] (50% Human Serum) was determined as 0.86%; in series [1] (50% Rat Serum) it was 0.91%; in series [1] (PBS), 0.21%. The “Impact of the medium” value in series [1] is given as “significant acceleration”. Moreover, in series [2], the “Prophylactic effect (in words)” value is recorded as “statistically significant”. In series [2] (single dose 20 mg/kg parent drug equivalent, 2 days prior to infection), the Measured bacterial titer is on record as 1.98 ± 0.06 Log CFU/g of bone.

Turning to `CO[C@H]1/C=C/O[C@@]2(C)Oc3c(C)c(O)c4c(=O)c(c5oc6cc(N7CCN(CCC(=O)c8ccc(OCCCC(P(=O)(O)O)P(=O)(O)O)cc8)CC7)cc(O)c6nc-5c4c3C2=O)NC(=O)/C(C)=C\C=C\[C@H](C)[C@H](O)[C@@H](C)[C@@H](O)[C@@H](C)[C@H](OC(C)=O)[C@@H]1C` [Compound 71], the “Activity” value in series [4] is “complete lack of activity”. The “Minimum inhibitory concentration” value in series [4] is 128 µg/mL (≈ 102 µM). In addition, the “% Conversion of bone-bound prodrug” value in series [1] (50% Human Serum) worked out at 0.46%; in series [1] (50% Rat Serum) it was 0.38%; in series [1] (PBS) it was 0.1%. Further, the “Impact of the medium” value in series [1] was “significant acceleration”. The “Prophylactic effect (in words)” value in series [2] was “statistically significant”. Further, the Measured bacterial titer in series [2] (single dose 20 mg/kg parent drug equivalent, 3 days prior to infection) is 2.77 ± 1.00 Log CFU/g of bone.
